Assay results: patent US20250275958A1, “GPCR REGULATOR AND USE THEREOF” (BEIJING CHANGPING LABORATORY, priority 2022, published 2025)
Where two headings read alike, the source gives them in different places.

Assays:
[1] = target: T1, GPR132 (Homo sapiens, UniProt Q9UNW8); test: G protein activation (Gi BRET probes, GPR132 co-transfected in HEK293 cells); assay type: cell-based; settings: stimulated 2 minutes, read-out: GPR132 EC50 (GPR132 agonist activity)
T1 construct: expressed in transfected cells; host or cells: HEK293 cells (transient co-transfection)
T1 sequence (Q9UNW8 1-380): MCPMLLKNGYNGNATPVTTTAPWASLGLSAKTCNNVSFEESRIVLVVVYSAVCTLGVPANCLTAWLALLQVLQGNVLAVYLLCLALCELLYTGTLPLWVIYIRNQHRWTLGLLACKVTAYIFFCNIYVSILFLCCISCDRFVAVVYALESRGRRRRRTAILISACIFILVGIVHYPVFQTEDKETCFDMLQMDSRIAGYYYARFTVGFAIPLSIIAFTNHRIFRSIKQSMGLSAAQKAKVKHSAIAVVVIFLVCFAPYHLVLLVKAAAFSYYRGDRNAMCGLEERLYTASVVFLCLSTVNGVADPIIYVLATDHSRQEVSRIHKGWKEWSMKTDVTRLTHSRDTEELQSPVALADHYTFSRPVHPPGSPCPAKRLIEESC
Description: Gi BRET probes were generated according to previous literature (Olsen et al., 2020), and included Gαi-RLuc8, Gβ3, and Gγ9-GFP2. GPR132 and Gi BRET probes were transiently co-transfected in HEK293 cells. 24 hours after transfection, the cells were distributed into 96-well microplates at a density of 5×10^4 cells per well and cultured for another 24 hours. The cells were washed twice with Tyrode buffer and stimulated with compound ligands at different concentrations (10^−12 to 10^−5 M) for 2 minutes. After adding coelenterazine, the substrate of luciferase, 400a (5 μM), BRET signal was measured using a Mithras LB940 microplate reader equipped with a BRET filter set. The BRET signal was calculated as the emission light ratio at 510 nm/400 nm.
The compounds with lower EC50 values in the above experiments had good GPR132 agonist activity.

[2] = tested on: TNF-α; test: Determination of level of tumor necrosis factor (TNF-α) as cell inflammatory marker, ELISA, LPS-treated HepG2 cells; assay type: cell-based; settings: Homo sapiens, 48 h of drug administration, read-out: EC50 (activity in reducing TNF-α)
Description: HepG2 cells were inoculated in 96-well plates at a density of 30%. After incubation for 18 h to allow the cells to adhere to wall, the original culture medium was removed, and each well of the drug group was added with LPS culture medium (LPS concentration was […]), the control group was added with an equal amount of DMSO, and incubation was performed overnight. […] Three replicate wells were set for each compound. After 48 h of drug administration, the cell supernatant was collected with a sterile tube, and centrifuged for about 20 minutes (2000 to 3000 rpm). The supernatant was carefully collected. The TNF-α level was then determined using ELISA method. The specific steps were as follows: • Standard sample addition: Standard sample wells and sample wells were set, and 50 μL of standard sample at different concentrations was added to each standard sample well. • Sample addition: Blank wells (blank control wells was not added with sample and ELISA reagent, and the rest operations were the same) and test sample wells were set. First, 40 μL of sample diluent was added to each test sample well on an ELISA plate, and then 10 μL of the sample to be tested (the final dilution ratio of sample was 5) was added. The sample was added to the bottom of the well of the ELISA plate, not touching the well wall as much as possible, and then the gentle shaking was carried out for mixing. • Enzyme addition: 100 μL of ELISA reagent was added to each well, except for the blank wells. • Incubation: The plate was sealed with a sealing film and incubated at 37° C. for 60 minutes. • Solution preparation: 20-Fold concentrated washing solution was diluted by 20-fold with distilled water for later use. • Washing: The sealing film was carefully peeled off, the liquid was discarded, the plate was spin-dried; each well was filled with the washing solution, allowed to stand for 30 seconds and then the washing solution was discarded. This operation was repeated 5 times, and pat-drying was performed. • Color development: First, 50 μL of color developer A was added to each well, then 50 μL of color developer B was added, gently shaken and mixed, and color development was performed at 37° C. in the dark for 15 minutes. • Termination: 50 μL of termination liquid was added to each well to stop the reaction (the blue color immediately turned yellow). • Determination: Zero was set with the blank well, and the absorbance (OD value) at 450 nm of each well was measured in sequence. The determination should be performed within 15 minutes after adding the termination liquid.
TNF-α content in the sample to be tested could be calculated by drawing a standard curve based on the standard samples. TNF-α reduction rate was further calculated. The formula for calculating TNF-α reduction was Reduction rate (%)=TNF-α contentcontrol−TNF-α contentto be tested/TNF-α contentcontrol×100.
In the above experiment, the compounds with higher TNF-α reduction rate and lower EC50 value could better reduce the level of inflammation.

SMILES | EC50 [1] [nM] | EC50 ([1]; class symbols) [nM] | EC50 [2] [nM] | EC50 ([2]; class symbols) [nM]
Cc1c(C(=O)O)oc2ccc(NC(=O)CCc3ccccc3)cc12 [Example 16] | 6500 | – | 10200 | –
Cc1c(C(=O)O)oc2ccc(OCCCc3ccccc3)cc12 [Example 22, 3-METHYL-5-(3-PHENYLPROPOXY)BENZOFURAN-2-CARBOXYLIC ACID] | – | 10 to 1000 | – | 10 to 10000
Cc1c(C(=O)O)oc2ccc(NC(=O)CCCCc3ccccc3)cc12 [Example 21, 3-METHYL-5-(5-PHENYLVALERAMIDO)BENZOFURAN-2-CARBOXYLIC ACID] | – | 1000 to 10000 | – | 10 to 10000
Cc1c(C(=O)O)oc2ccc(NC(=O)[C@H]3C[C@H]3c3ccccc3)cc12 [Example 19, 3-METHYL-5-((1S,2R)-2-PHENYLCYCLOPROPANE-1-CARBOXAMIDO) BENZOFURAN-2-CARBOXYLIC ACID] | – | 1000 to 10000 | – | 10000 to 50000
Cc1c(C(=O)O)oc2ccc(S(=O)(=O)N(CCc3ccccc3)c3ccc(N4CCN(S(C)(=O)=O)CC4)cc3)cc12 [Example 29, 3-METHYL-5-(N-(4-(4-(METHYLSULFONYL)PIPERAZIN-1-YL)PHENYL)-N-PHENYLETHYLSULFAMOYL)BENZOFURAN-2-CARBOXYLIC ACID] | – | 1000 to 10000 | – | 10000 to 50000
Cc1c(C(=O)O)oc2ccc(NC(=O)CCC(=O)c3ccccc3)cc12 [Example 20] | – | 10 to 1000 | – | 10 to 10000
Cc1c(C(=O)O)oc2ccc(NC(=O)/C=C/c3cccc(I)c3)cc12 [Example 18, (E)-5-(3-(3-IODOPHENYL)ACRYLAMIDO)-3-METHYLBENZOFURAN-2-CARBOXYLIC ACID] | 510 | – | 1000 | –
Cc1c(C(=O)O)oc2ccc(S(=O)(=O)N(CCc3ccccc3)Cc3ccc(C(=O)OC(C)(C)C)cc3)cc12 [Example 25, 3-METHYL-5-(N-(4-(TERT-BUTYLOXYCARBONYL)BENZYL)-N-PHENYLETHYLSULFAMOYL) BENZOFURAN-2-CARBOXYLIC ACID] | – | 10 to 1000 | – | 10 to 10000
Cc1c(C(=O)O)oc2ccc(NC(=O)/C=C/c3ccccc3)cc12 [Example 17] | – | 10 to 1000 | – | 10 to 10000
Cc1c(C(=O)O)oc2ccc(S(=O)(=O)N(CCc3ccccc3)c3ccc(Oc4ccccc4)cc3)cc12 [Example 30, 3-METHYL-5-(N-(4-PHENOXYPHENYL)-N-PHENYLETHYLSULFAMOYL)BENZOFURAN-2-CARBOXYLIC ACID] | – | 10 to 1000 | – | 10000 to 50000

Now from value to molecule, other results behind:

EC50 [1] [nM] | EC50 ([1]; class symbols) [nM] | SMILES | EC50 [2] [nM] | EC50 ([2]; class symbols) [nM]
– | 1000 to 10000 | Cc1c(C(=O)O)oc2ccc(S(=O)(=O)N(CCc3ccccc3)c3ccccc3)cc12 [Example 27, 3-METHYL-5-(N-PHENETHYL-N-PHENYLSULFAMOYL)BENZOFURAN-2-CARBOXYLIC ACID] | – | 10000 to 50000
– | 1000 to 10000 | Cc1c(C(=O)O)oc2ccc(S(=O)(=O)N(CCc3ccccc3)Cc3cccc4cccnc34)cc12 [Example 26, 3-METHYL-5-(N-(QUINOLIN-8-YLMETHYL)-N-PHENYLETHYLSULFAMOYL)BENZOFURAN-2-CARBOXYLIC ACID] | – | 10000 to 50000
2100 | – | Cc1c(C(=O)O)oc2ccc(S(=O)(=O)N(CCc3ccccc3)CCc3ccccc3)cc12 [Example 28, 3-Methyl-5-(N,N-diphenylethylsulfamoyl)benzofuran-2-carboxylic acid] | 3100 | –
3800 | – | Cc1c(C(=O)O)oc2ccc(S(=O)(=O)N(CCc3ccccc3)Cc3ccccc3)cc12 [Example 23, 3-METHYL-5-(N-BENZYL-N-PHENYLETHYLSULFAMOYL)BENZOFURAN-2-CARBOXYLIC ACID] | 5900 | –
300 | – | Cc1c(C(=O)O)oc2ccc(S(=O)(=O)N(CCc3ccccc3)Cc3ccc(Br)cc3)cc12 [Example 24, 3-METHYL-5-(N-(4-BROMOBENZYL)-N-PHENYLETHYLSULFAMOYL)BENZOFURAN-2-CARBOXYLIC ACID] | 700 | –
